Experimental data as given in patent US10774076B2, “Benzazole compounds and methods for making and using the compounds” (Rigel Pharmaceuticals, Inc., priority 2015, dated 2020).

What was measured:
[1] = test system: IL23-p19; experiment: Compound screening using DC cells: LPS-induced IL-23 (p19/p40) ELISA in IFNγ-primed dendritic cells differentiated from human PBMC; assay type: cell-based; conditions: Dendritic cell, human PBMC-derived dendritic cells, LPS 1 μg/ml, 18 hours, 10 pt
Protocol: Compound Screening Using DC Cells
Human PBMC cells (400 million) obtained from the vendor were transferred into a T-175 flask containing 15 ml RPMI media (10% FBS) and incubate for 2 hours at 37° C. After 2 hours, the media including floating cells was aspirated out carefully and 12 ml of fresh RPMI media (10% FBS) containing GMCSF (100 ng/ml) and IL4 (20 ng/ml) was added, and the flask was kept in a 37° C. incubator for 7 days.
After 3 days, fresh GMCSF (100 ng/ml) and IL4 (20 ng/ml) were added to the flask and the incubation continued. After 7 days, the fully differentiated cells were harvested by spinning down (1200 rpm/5 min) and aspirating the media. The cells were suspended in fresh RPMI media (10% FBS) containing 50 ng/ml IFNγ (1000 U/ml) and then plated (50K/well in 100 μl) onto a white clear bottom 96 well plate and left in a 37° C. incubator for 24 hours.
After 24 hours incubation, 100 μl of RPMI media was added containing 2× concentrated test compound per well to the above cell-culture media (final concentration becomes 1×) and the plates were pre-incubated for 1 hour at 37° C. before stimulating with LPS.
After 1 hour compound pre-incubation, 10 μl per well of 20× concentrated LPS solution in RPMI media was added to give a final concentration of 1 μg/ml. The mixture was shaken and incubated the plates at 37° C. for an additional 18 hours.
155 μl of the supernatant was harvested from each well carefully (without the tip touching the bottom of the well) and to the remaining 50 μl/well of the cell culture plate was added 50 μl of Cell Titer Glo reagent. The mixture was incubated for 1-2 minutes on a shaker and the plate was read for luminescence intensity to determine the compound cytotoxicity. The cell culture supernatant collected above was used to carry out IL23 ELISA (65 μl—Supernatant) and IL10 ELISA (90 μl—Supernatant) as described below.
Human IL-23 (p19/p40) ELISA Protocol (e-Biosciences)
To 10.5 ml PBS add 50 μl of anti-IL23 (p19) was added capture antibody (2.5 μg/ml). The mixture was mixed well and 100 μl of the coating solution was added to each well of the 96 well white plates from Pierce. The wells were covered and incubated overnight at 4° C.
The anti-IL23 (p19)-antibody-coated plates were washed 2× using TBST (use plate washer) and blocked using 200 μl of 0.5% Casein for 1.5-2 hours at room temperature with shaking.
The plates were washed 2× using TBST and the supernatant was transferred (65 μl/well) to the above pre-blocked/IL23(p19)-antibody-coated 96 well plate, and incubated at room temperature for 1.5 hours with shaking.
The plates were washed 4× using TBST (plate washer) and 100 μl/well detection antibody solution prepared from 2 μl of biotin labeled anti-IL-12 (p40/p70) antibody in 11 ml 1% BSA/PBS solution (I-5000 dilution) was added. The plates were incubated for 1 hour with shaking at Room temperature.
Again, the plates were washed 4× with TBST and 100 μl of HRP labeled Streptavidin (R&D Systems) solution (10 μl/10 ml 1% BSA solution) was added, and the plates were incubated at room temperature for another 45 minutes with shaking.
After 45 minutes, the plates were washed with TBST 4× and 100 ul/well Super Signal ELISA Pico Chemiluminescent Substrate from Pierce (3.5 ml A+3.5 ml B+3.5 ml MQ water) was added. The plates were shaken for 1-2 minutes then read on a plate reader.

[2] = test system: IL23p19; experiment: LPS Induced IL23p19 in THP-1 Cells (with IFNγ Primed) Assay; assay type: cell-based; conditions: Homo sapiens, IFNγ primed (50 ng/mL), LPS 1 ug/mL, 18 hours, 10 pt, read-out: IL23-p19 ELISA, THP1-IFNy, LPS, 10 pt EC50
From the text: LPS Induced IL23p19 in THP-1 Cells (with IFNγ Primed) Assay
THP-1 Cells (ATCC, Cat # TIB-202), Dimethyl Sulfoxide (DMSO) (Sigma-Aldrich, Cat # D2650), RPMI 1640 (Cellgro, Cat #10-040-CM), Fetal Bovine Serum (Sigma, Cat # F4135), Albumin From Bovine Serum (BSA) (Sigma-Aldrich, Cat # A7906), LPS (Serotype K-235, Sigma, Product Number L 2143), IFNγ (Peprotech, Cat #300-02)
Capture antibody: Human IL-23p19 ELISA (e-Bioscience, Cat. #14-7238-85),
Detection antibody: Primary Mouse Biotinylated anti-human IL-12(p40/p70) (e-Bioscience, Cat. #13-7129-85), Secondary HRP-conjugated Streptavidin (R&D Systems, Cat # DY998), 1×PBST Washing Buffer (PBS-Tween tablet) (VWR International, Cat #80058-558), ELISA Blocking Buffer (PBS with 1% BSA), ELISA Dilution Buffer (PBS with 1% BSA), 384 Well Flat-Bottom, MaxiSorp Black Immuno Plates (Thermo Scientific, Cat #12-565-346), 384 Well Flat-Bottom, White Tissue Culture Plates (Thermo Scientific, Cat #12-565-343), Super Signal ELISA Pico Chemiluminescent Substrate (Thermo Scientific, Cat #37070), Cell Titer Glo reagent (Promega, Cat # G7573), Positive control, IKK2VI inhibitor (Calbiochem, Cat #401483), AquaMax 4000 plate washer (Molecular Devices), Luminometer, Wallac Victor2 1420 Multilabel Counter. Method THP-1 Cells Stimulation:
On day 1, 50K/well THP-1 cells were seeded and primed with IFNγ (50 ng/mL) in 384-well plates for about 18 hours in RPMI media with 10% FBS. On day 2, the compound was serially diluted in DMSO from 5 mM in 3-fold dilutions, and then diluted 1:125 in RPMI media with 10% FBS. 50 μL/well 2× compound was added to 50 μL/well THP-1 cells (with IFNγ primed) in duplicate in 384 well tissue culture plates. The cells were pre-incubated with compound for 1 hour at 37° C., 5% CO2 before addition of 10 μL/well 11×LPS to give a final concentration of 1 ug/mL LPS. Day 3, after stimulation for 18 hours at 37° C., 5% CO2, the assay plate was centrifuged and 70 μL/well supernatant was harvested. IL-23p19 protein in 70 μL/well of supernatant was measured by sandwich ELISA, and 25 μl/well Cell Titer Glo reagent was added to the remaining cells to measure compound toxicity.
Human IL-23p19 Sandwich ELISA:
Maxisorp immuno ELISA plates were pre-coated with 25 μL/well of anti-IL-23p19 capture antibody (2.5 ug/mL) in PBS overnight at room temperature. After washing with 1×PBST, the plates were blocked using 100 μL/well of 1% BSA in PBS for 2 hours at room temperature. The plates were washed three times with 1×PBST and 70 μL/well supernatant were added. The plates were incubated at room temperature for 2 hours with shaking and washed three times with 1×PBST. 25 μL/well of biotin labeled anti-IL-12(p40/p70) detection antibody (100 ng/mL) in PBS with 1% BSA was added and the plates were incubated at room temperature for 2 hours with shaking. After washing three times with 1×PBST, 25 μL/well of streptavidin-HRP (1:200) in PBS with 1% BSA was added and the plates were incubated at room temperature for 20 minutes with shaking. The plates were washed three times with 1×PBST and 25 μL/well of Super Signal ELISA Pico Chemiluminescent Substrate were added. The plates were read with a luminometer, and the chemiluminescence values were entered into Athena (Rigel) for curve fitting, EC50 calculation, and database storage.

Structure (SMILES)	EC50 [1] [nM]	EC50 [2] [nM]
O=C(Nc1cc2oc(N3CCOCC3)nc2cc1N1CCCC1)c1csc(-c2cn[nH]c2)n1 [Compound I-47, N-(2-morpholino-5-(pyrrolidin-1-yl)benzo[d]oxazol-6-yl)-2-(1H-pyrazol-4-yl)thiazole-4-carboxamide]	58	21.3
O=C(Nc1cc2oc(NCCN3CCOCC3)nc2cc1N1CCCCC1)c1csc(-c2cn[nH]c2)n1 [Compound I-52, N-(2-((2-morpholinoethyl)amino)-5-(piperidin-1-yl)benzo[d]oxazol-6-yl)-2-(1H-pyrazol-4-yl)thiazole-4-carboxamide]	37.1	20
O=C(Nc1cc2oc(N3CCOCC3)nc2cc1N1CCCC(F)(F)C1)c1csc(-c2cn[nH]c2)n1 [Compound I-44, N-(5-(3,3-difluoropiperidin-1-yl)-2-morpholinobenzo[d]oxazol-6-yl)-2-(1H-pyrazol-4-yl)thiazole-4-carboxamide]	101	88.7
O=C(Nc1cc2oc(N3CCOCC3)nc2cc1N1CCCCC1)c1csc(-c2cn[nH]c2)n1 [Compound I-12, N-(2-morpholino-5-(piperidin-1-yl)benzo[d]oxazol-6-yl)-2-(1H-pyrazol-4-yl)thiazole-4-carboxamide]	20	53.9
Cc1cc(-c2ccc(C(=O)Nc3cc4oc(N5CCN(C)CC5)nc4cc3N3CCCCC3)o2)ccn1 [Compound I-18, N-(2-(4-methylpiperazin-1-yl)-5-(piperidin-1-yl)benzo[d]oxazol-6-yl)-5-(2-methylpyridin-4-yl)furan-2-carboxamide]	889	7510
O=C(Nc1cc2oc(N3CCOCC3)nc2cc1N1CCCC(F)C1)c1csc(-c2cn[nH]c2)n1 (stereo not drawn) [Compound I-40, N-(5-(3-fluoropiperidin-1-yl)-2-morpholinobenzo[d]oxazol-6-yl)-2-(1H-pyrazol-4-yl)thiazole-4-carboxamide]	41	25
O=C(Nc1cc2oc(N3CCOCC3)nc2cc1N1CCC(F)(F)CC1)c1ccc(-c2cn[nH]c2)o1 [Compound I-27, N-(5-(4,4-difluoropiperidin-1-yl)-2-morpholinobenzo[d]oxazol-6-yl)-5-(1H-pyrazol-4-yl)furan-2-carboxamide]	747	528
COCCN(C)c1nc2cc(N3CCCCC3)c(NC(=O)c3csc(-c4cn[nH]c4)n3)cc2o1 [Compound I-51, N-(2-((2-methoxyethyl)(methyl)amino)-5-(piperidin-1-yl)benzo[d]oxazol-6-yl)-2-(1H-pyrazol-4-yl)thiazole-4-carboxamide]	41.1	74.2
Nc1ccc(-c2ccc(C(=O)Nc3cc4sc(N5CCOCC5)nc4cc3N3CCCCC3)o2)cn1 [Compound I-5, 5-(6-aminopyridin-3-yl)-N-(2-morpholino-5-(piperidin-1-yl)benzo[d]thiazol-6-yl)furan-2-carboxamide]	257	432
CN1CCN(c2nc3cc(N4CCCCC4)c(NC(=O)c4ccc(-c5cc[nH]n5)o4)cc3o2)CC1 [Compound I-17, N-(2-(4-methylpiperazin-1-yl)-5-(piperidin-1-yl)benzo[d]oxazol-6-yl)-5-(1H-pyrazol-3-yl)furan-2-carboxamide]	1020	1230
O=C(Nc1cc2oc(N3CCCCC3)nc2cc1N1CCCCC1)c1ccc(-c2cn[nH]c2)o1 [Compound I-31, N-(2,5-di(piperidin-1-yl)benzo[d]oxazol-6-yl)-5-(1H-pyrazol-4-yl)furan-2-carboxamide]	444	144
Cc1cc(-c2ccc(C(=O)Nc3cc4oc(N5CCOCC5)nc4cc3N3CCCCC3)o2)ccn1 [Compound I-10, 5-(2-methylpyridin-4-yl)-N-(2-morpholino-5-(piperidin-1-yl)benzo[d]oxazol-6-yl)furan-2-carboxamide]	2990	4630
Cc1cc(-c2nc(C(=O)Nc3cc4oc(N5CCOCC5)nc4cc3N3CCCC(F)(F)C3)cs2)ccn1 [Compound I-45, N-(5-(3,3-difluoropiperidin-1-yl)-2-morpholinobenzo[d]oxazol-6-yl)-2-(2-methylpyridin-4-yl)thiazole-4-carboxamide]	402	342
CN1CCN(c2nc3cc(N4CCCCC4)c(NC(=O)c4csc(-c5cn[nH]c5)n4)cc3o2)CC1 [Compound I-20, N-(2-(4-methylpiperazin-1-yl)-5-(piperidin-1-yl)benzo[d]oxazol-6-yl)-2-(1H-pyrazol-4-yl)thiazole-4-carboxamide]	18	22.4
O=C(Nc1cc2sc(N3CCOCC3)nc2cc1N1CCCCC1)c1ccc(-c2cnc3[nH]ccc3c2)o1 [Compound I-6, N-(2-morpholino-5-(piperidin-1-yl)benzo[d]thiazol-6-yl)-5-(1H-pyrrolo[2,3-b]pyridin-5-yl)furan-2-carboxamide]	14000	40500
